Results: patent US5057325A, “Method of inhibiting replication of HIV with water-soluble melanins” (Vanderbilt University, priority 1990, dated 1991)

Tested on: HIV-1 (HTLV-IIIB)
Assay type: cell-based
Conditions: at 1-100 μg/ml; in these assays (HTLV-IIIB, HTLV-IIIRF, HIV-2ROD infection of MT-2 cells)
From the text: The activity of the melanins for inhibiting replication of HIV can be confirmed by known assays, including particularly the assay described by Montefiori, et al., J. Clin. Microb., 26:231-235, 1988. That assay utilizes human T-cell lymphotropic virus type I-immortalized MT-2 cells as targets for infection. Cytolysis can be quantitated by vital dye uptake of poly-L-lysine-adhered cells as an endpoint for infection. The MT-cell assay has now been accepted as a standard screening test.
Antiviral activities of the synthetic water-soluble melanins derived as described in Example I from L-tyrosine, L-dopa, dopamine, serotonin, norepinephrine, L-dopa/glutathione, and L-dopa/ L-cysteine were measured in 96 well microdilution plates as described (Montefiori, et al., J. Clin. Microbiol. 26:231-235, 1988). Briefly, 2-fold serial dilutions of melanins were made in triplicate in a total of 100 ul growth medium (RPMI-1640 containing 12% heat-inactivated fetal bovine serum and 50 ug gentamicin/ml) per well. MT-2 cells (5×10^4) in 100 ul of growth medium were added to each well and incubated for 10 minutes. […] Viral-induced cytopathic effect (CPE) was quantitated 3 days later by vital dye (neutral red) uptake in remaining viable cells. […]

Substance | antiviral activity
L-dopa | no antiviral activity
L-tyrosine | no antiviral activity
